Assay results: ChEMBL document CHEMBL2029240 (ACS Med Chem Lett, 2011)

Assays:
[1] = biological target: C-C chemokine receptor type 2 (Homo sapiens, UniProt P41597)
Description: Displacement of [125I]MCP1 from human CCR2 in PBMC after 30 mins by gamma counting

[2] = biological target: Voltage-gated inwardly rectifying potassium channel KCNH2 (Homo sapiens, UniProt Q12809); test: Displacement of [3H]dofetilide from human ERG
[3] = biological target: hERG (KCNH2) (Homo sapiens, UniProt Q12809); test: Inhibition of human ERG at 10 uM by patch clamp assay
Sequence of hERG (KCNH2) (Q12809 whole entry): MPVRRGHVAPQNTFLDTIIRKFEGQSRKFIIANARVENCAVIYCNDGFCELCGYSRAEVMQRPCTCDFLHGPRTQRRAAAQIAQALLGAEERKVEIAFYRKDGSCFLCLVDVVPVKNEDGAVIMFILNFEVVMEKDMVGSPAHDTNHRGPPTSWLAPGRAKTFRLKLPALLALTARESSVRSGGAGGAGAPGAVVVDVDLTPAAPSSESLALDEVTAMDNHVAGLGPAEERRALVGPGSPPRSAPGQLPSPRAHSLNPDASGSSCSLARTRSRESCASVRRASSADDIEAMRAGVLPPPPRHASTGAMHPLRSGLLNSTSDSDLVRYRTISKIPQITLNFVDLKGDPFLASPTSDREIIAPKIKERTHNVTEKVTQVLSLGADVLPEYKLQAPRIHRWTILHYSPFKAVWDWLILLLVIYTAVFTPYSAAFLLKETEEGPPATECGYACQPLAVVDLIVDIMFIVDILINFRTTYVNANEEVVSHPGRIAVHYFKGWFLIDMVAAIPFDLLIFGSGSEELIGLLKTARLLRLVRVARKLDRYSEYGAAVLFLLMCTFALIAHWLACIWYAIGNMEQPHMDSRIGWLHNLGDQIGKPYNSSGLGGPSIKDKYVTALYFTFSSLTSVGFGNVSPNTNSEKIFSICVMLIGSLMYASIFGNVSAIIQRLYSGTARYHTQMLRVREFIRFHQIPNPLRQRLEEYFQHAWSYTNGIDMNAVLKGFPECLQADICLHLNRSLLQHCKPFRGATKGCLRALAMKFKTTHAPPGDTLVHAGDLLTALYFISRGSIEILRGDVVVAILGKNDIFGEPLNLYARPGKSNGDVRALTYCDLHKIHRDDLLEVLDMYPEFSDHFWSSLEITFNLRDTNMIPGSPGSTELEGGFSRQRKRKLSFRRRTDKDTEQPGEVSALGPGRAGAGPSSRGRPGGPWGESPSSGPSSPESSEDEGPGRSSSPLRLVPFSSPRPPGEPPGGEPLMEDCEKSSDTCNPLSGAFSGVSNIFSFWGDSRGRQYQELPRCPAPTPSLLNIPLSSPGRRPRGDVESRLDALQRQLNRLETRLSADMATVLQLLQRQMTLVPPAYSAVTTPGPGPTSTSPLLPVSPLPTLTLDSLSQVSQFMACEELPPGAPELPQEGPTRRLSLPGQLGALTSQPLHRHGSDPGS

Sequence of C-C chemokine receptor type 2 (P41597 whole entry): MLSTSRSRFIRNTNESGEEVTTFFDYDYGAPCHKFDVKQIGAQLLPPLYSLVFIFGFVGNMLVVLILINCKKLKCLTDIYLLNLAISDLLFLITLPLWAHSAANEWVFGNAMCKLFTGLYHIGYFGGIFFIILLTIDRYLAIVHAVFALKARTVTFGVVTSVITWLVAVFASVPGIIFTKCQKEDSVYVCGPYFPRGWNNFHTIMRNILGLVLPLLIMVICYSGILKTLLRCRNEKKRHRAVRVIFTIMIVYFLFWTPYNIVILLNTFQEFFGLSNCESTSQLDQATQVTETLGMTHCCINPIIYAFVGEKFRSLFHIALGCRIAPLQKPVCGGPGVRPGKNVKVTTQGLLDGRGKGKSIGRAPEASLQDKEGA
Sequence of Voltage-gated inwardly rectifying potassium channel KCNH2 (Q12809 whole entry): as the sequence (Q12809 whole entry) above

SMILES	IC50 [1] [nM]	IC50 [2] [nM]	inhibition at 10 µM [3] [%]
O=C(NCC(=O)N1CC[C@@H](N[C@H]2CC[C@@H](c3ccccc3)CC2)C1)c1cccc(C(F)(F)F)c1	860	–	–
O=C(NCC(=O)N1CC[C@H](N[C@H]2CC[C@@H](c3ccccc3)CC2)C1)c1cccc(C(F)(F)F)c1	35	–	–
CN([C@H]1CCN(C(=O)CNC(=O)c2cccc(C(F)(F)F)c2)C1)[C@H]1CC[C@@H](c2ccccc2)CC1	84	–	–
O=C(NCC(=O)N1CC[C@H](N[C@H]2CC[C@@](O)(c3ccccc3)CC2)C1)c1cccc(C(F)(F)F)c1	65	–	–
COc1ccc([C@]2(O)CC[C@H](N[C@H]3CCN(C(=O)CNC(=O)c4cccc(C(F)(F)F)c4)C3)CC2)cn1	95	–	–
O=C(NCC(=O)N1CC[C@H](N[C@H]2CC[C@@](O)(c3ccccn3)CC2)C1)c1cccc(C(F)(F)F)c1	–	> 30000	34
O=C(NCC(=O)N1CC[C@H](N[C@H]2CC[C@@](O)(c3nccs3)CC2)C1)c1cccc(C(F)(F)F)c1	18	–	–
Cc1ccc([C@]2(O)CC[C@H](N[C@H]3CCN(C(=O)CNC(=O)c4cccc(C(F)(F)F)c4)C3)CC2)nc1	–	24000	71
O=C(NCC(=O)N1CC[C@H](N[C@H]2CC[C@@](O)(c3ccc(-c4cccnc4)cn3)CC2)C1)c1cccc(C(F)(F)F)c1	–	30000	–
